Assay results reported in US20210347709A1, “RADIOFLUORINATED GPC3-BINDING PEPTIDES FOR PET IMAGING OF HEPATOCELLULAR CARCINOMA” (University of Southern California, priority 2020, published 2021).
Read-outs that look alike come from different tables or passages of the source.

Key:
[1] = Measurement of lipophilicity (Log P), 1-octanol/PBS partition; format: physicochemical; settings: 1-octanol / PBS pH 7.4, mean ± SD, n = 4
Description: Measurement of Lipophilicity (Log P). Approximately 185 kBq of Al[^18F]F-GP2076 or Al[^18F]F-GP2633 in 0.5 ml of phosphate-buffered saline (PBS) (pH 7.4) was mixed with 0.5 ml of 1-octanol. The mixture was vigorously shaken for 1 min, and then centrifuged at 12,000 rpm for 5 min to partition the organic and aqueous layers. Aliquots of 0.2 ml each layer were taken and the radioactivity was determined by gamma counting (GC-1200, USTC Chuangxin Co. Ltd. Zonkia Branch, China). The distribution coefficient P was calculated as the ratio of radioactivity in the organic phase to that in the aqueous phase. The experiment was carried out in quadruplicate.

HepG2 tumor = experiment: Ex vivo biodistribution in HepG2 tumor bearing nude mice; settings: 1 h post-injection, gamma counting
Description: (§1) All animal experiments were conducted according to the guideline of the Nanfang Hospital Animal Ethics Committee at the Southern Medical University. Male or female BALB/c nude mice (about 4-6 weeks old) were obtained from the Laboratory Animal Center at Southern Medical University. The HepG2 and McA-RH7777 HCC xenografts were established by subcutaneous injection of 1×10^6 tumor cells into the left shoulder of nude mice. The animals were used for in vivo studies when the tumors reached a size of 0.5-1 cm in diameter (4-6 weeks after inoculation).
(§2) Ex vivo biodistribution was evaluated at 60 min after the tail vein injection of 1.85 MBq of Al[^18F]F-GP2076 or Al[^18F]F-GP2633. Mice were euthanized and dissected. Major tissues and organs were collected and weighed wet. The radioactivity in the tissues and organs was measured using a gamma counter. The results were presented as % ID/g. For each animal, the radioactivity of the tissue and organ samples was calibrated with a known aliquot of the injected activity. Mean uptake (% ID/g) for a group of animals was calculated with standard deviations.

[2] = as above; settings: both sexes, BALB/c nude, mouse, iv, 1.85 MBq, total radioactivity, 1 h post-injection, gamma counting
Description: as §1, §2

[3] = MicroPET/CT imaging and biodistribution, HepG2 tumor model; format: in vivo, nude mice; settings: both sexes, BALB/c nude, mouse, iv, 5.55 MBq, total radioactivity; for tissue to tissue ratio at 1 h / tissue to tissue ratio at 0.5 h / tissue to tissue ratio at 2 h: HepG2 (GPC3+) tumor bearing mice; for tissue to tissue ratio at 1 h / tissue uptake at 1 h: 60 min; for tissue to tissue ratio at 0.5 h / tissue uptake at 0.5 h: 30 min; for tissue to tissue ratio at 2 h / tissue uptake at 2 h: 120 min; for tissue uptake at 0.5 h / tissue uptake at 1 h / tissue uptake at 2 h: HepG2 (GPC3+) tumor model, PET
Description: (§3) MicroPET/CT Imaging and Biodistribution. MicroPET/CT scans were carried out using a Siemens Inveon PET/CT scanner (Siemens, Germany). Tumor-bearing mice (n=3/group) were intravenously injected with 5.55 MBq of Al[^18F]F-GP2076 or Al[^18F]F-GP2633 under isoflurane anesthesia. A ten-minute static PET scan for each animal was acquired at 30, 60, and 120 min after the injection. 3-Dimensional ordered subset expectation maximization (3D-OSEM) algorithm was used for the PET reconstruction, and CT was applied for attenuation correction. Detailed procedures for the microPET/CT imaging and biodistribution are provided in ESM.
as §1
(§4) Inveon Research Workplace (IRW) 3.0 software (Siemens, Germany) was used to measure the regions of interest (ROIs) determined by superimposing the ellipsoid volume of interest (VOI) on the target tissues. The radioactivity concentrations were measured by the mean pixel intensity within each VOI and converted to dose/ml using a calibration constant. Assuming the tissue density of 1 g/ml, the ROI was then converted to dose per gram and normalized as the percent injected dose per gram (% ID/g). Tumor-to-nontarget uptake ratios, including tumor-to-muscle (T/M), tumor-to-liver (T/L), and tumor-to-kidneys (T/K) ratios, were calculated by dividing the radioactivity uptake in tumor by that in the corresponding normal tissue or organ.

[4] = tested on: GPC3-positive HepG2 tumor; experiment: as above; format: in vivo, nude mice; settings: for Kidneys uptake / Liver uptake / Tumor uptake: HepG2 (GPC3+) tumor model; for Tumor uptake: decay-corrected
Description: as §3, §1, §4

[5] = HepG2 tumor / liver, read-out: Tumor-to-liver (T/L) uptake ratio
[6] = HepG2 tumor / muscle, read-out: Tumor-to-muscle (T/M) uptake ratio
[7] = intestine, read-out: Intestinal uptake
[8] = decay-corrected, read-out: Tumor uptake
[9] = kidneys, read-out: Kidneys uptake
[10] = muscle, read-out: Muscle uptake
[11] = tumor / kidneys, read-out: Tumor-to-kidneys (T/K) uptake ratio
[12] = HepG2 (GPC3+) tumor bearing mice, 30 min
[13] = HepG2 (GPC3+) tumor bearing mice, 60 min
[14] = HepG2 (GPC3+) tumor bearing mice, 120 min

CC(C)C[C@H](NC(=O)[C@H](CCCNC(=N)N)NC(=S)Nc1ccc(CC2CN(CC(=O)O)CCN(CC(=O)O)CCN2CC(=O)O)cc1)C(=O)N[C@@H](CC(N)=O)C(=O)N[C@H](C(=O)NCC(=O)NCC(=O)N[C@H](C(=O)N[C@@H](Cc1ccc(O)cc1)C(=O)N[C@@H](Cc1ccccc1)C(=O)N[C@@H](CC(C)C)C(=O)N[C@H](C(=O)N[C@H](C(=O)N[C@@H](CCCNC(=N)N)C(=O)N[C@@H](CCC(N)=O)C(=O)O)[C@@H](C)O)[C@@H](C)O)[C@@H](C)O)C(C)C (single isomer, unassigned) [Al[^18F]F-GP2076]
logP [1]: -2.1 ± 0.07 | HepG2 Tumor uptake, ex vivo biodistribution (HepG2 tumor): 1.13±0.02 % ID/g | Liver uptake, ex vivo biodistribution (HepG2 tumor): 2.30±0.56 % ID/g | tissue uptake at 1 h ([2]; HepG2 tumor, read-out: HepG2 Tumor uptake, ex vivo biodistribution): 1.13 ± 0.02 %ID/g | tissue uptake at 1 h ([2]; blood, read-out: Blood uptake, ex vivo biodistribution): 0.36 ± 0.17 %ID/g | tissue uptake at 1 h ([2]; bone, read-out: Bone uptake, ex vivo biodistribution): 0.29 ± 0.13 %ID/g | tissue uptake at 1 h ([2]; brain, read-out: Brain uptake, ex vivo biodistribution): 0.1 ± 0.1 %ID/g | tissue uptake at 1 h ([2]; heart, read-out: Heart uptake, ex vivo biodistribution): 0.36 ± 0.15 %ID/g | tissue uptake at 1 h ([2]; kidneys, read-out: Kidneys uptake, ex vivo biodistribution): 6.37 ± 1.45 %ID/g | tissue uptake at 1 h ([2]; liver, read-out: Liver uptake, ex vivo biodistribution): 2.3 ± 0.56 %ID/g | tissue uptake at 1 h ([2]; muscle, read-out: Muscle uptake, ex vivo biodistribution): 0.24 ± 0.07 %ID/g | tissue to tissue ratio at 1 h ([3]; HepG2 tumor / kidneys, read-out: Tumor-to-kidneys (T/K) uptake ratio): 0.31 ± 0.04 | tissue to tissue ratio at 0.5 h [3, 5]: 0.43 ± 0.06 | tissue to tissue ratio at 1 h [3, 5]: 0.59 ± 0.14 | tissue to tissue ratio at 2 h [3, 5]: 0.46 ± 0.4 | tissue to tissue ratio at 0.5 h [3, 6]: 5.56 ± 1.36 | tissue to tissue ratio at 1 h [3, 6]: 5.13 ± 2.08 | tissue to tissue ratio at 2 h [3, 6]: 2.68 ± 0.29 | tissue uptake at 0.5 h ([3]; bone, read-out: Bone uptake): 0.95 %ID/g | tissue uptake at 1 h ([3]; bone, read-out: Bone uptake): 0.35 %ID/g | tissue uptake at 2 h ([3]; bone, read-out: Bone uptake): 0.21 %ID/g | tissue uptake at 0.5 h ([3]; brain, read-out: Brain uptake): 0.63 %ID/g | tissue uptake at 1 h ([3]; brain, read-out: Brain uptake): 0.18 %ID/g | tissue uptake at 2 h ([3]; brain, read-out: Brain uptake): 0.13 %ID/g | tissue uptake at 0.5 h ([3]; heart, read-out: Heart uptake): 1.29 %ID/g | tissue uptake at 1 h ([3]; heart, read-out: Heart uptake): 1.05 %ID/g | tissue uptake at 2 h ([3]; heart, read-out: Heart uptake): 0.36 %ID/g | tissue uptake at 0.5 h [3, 7]: 3.03 %ID/g | tissue uptake at 1 h [3, 7]: 2.57 %ID/g | tissue uptake at 2 h [3, 7]: 1.8 %ID/g | tissue uptake at 0.5 h [3, 8]: 2.2 %ID/g | tissue uptake at 1 h [3, 8]: 2.13 %ID/g | tissue uptake at 2 h [3, 8]: 0.73 %ID/g | tissue uptake at 0.5 h [3, 9]: 9.83 %ID/g | tissue uptake at 1 h [3, 9]: 7.03 %ID/g | tissue uptake at 2 h [3, 9]: 2.27 %ID/g | tissue uptake at 0.5 h ([3]; liver, read-out: Liver uptake): 5.1 %ID/g | tissue uptake at 1 h ([3]; liver, read-out: Liver uptake): 3.7 %ID/g | tissue uptake at 2 h ([3]; liver, read-out: Liver uptake): 2.07 %ID/g | tissue uptake at 0.5 h ([3]; lung, read-out: Lung uptake): 1.57 %ID/g | tissue uptake at 1 h ([3]; lung, read-out: Lung uptake): 0.78 %ID/g | tissue uptake at 2 h ([3]; lung, read-out: Lung uptake): 0.43 %ID/g | tissue uptake at 0.5 h [3, 10]: 0.41 %ID/g | tissue uptake at 1 h [3, 10]: 0.44 %ID/g | tissue uptake at 2 h [3, 10]: 0.28 %ID/g | tissue to tissue ratio at 0.5 h [3, 11]: 0.25 ± 0.11 | tissue to tissue ratio at 2 h [3, 11]: 0.46 ± 0.46 | Tumor-to-liver (T/L) uptake ratio [4, 12]: 0.43±0.06 | Tumor-to-muscle (T/M) uptake ratio [4, 12]: 5.56±1.36 | Tumor-to-kidneys (T/K) uptake ratio [4, 13]: 0.31±0.04 | Tumor-to-liver (T/L) uptake ratio [4, 13]: 0.59±0.14 | Tumor-to-muscle (T/M) uptake ratio [4, 13]: 5.13±2.08 | Tumor-to-liver (T/L) uptake ratio [4, 14]: 0.46±0.40 | Tumor-to-muscle (T/M) uptake ratio [4, 14]: 2.68±0.29 | Kidneys uptake ([4]; 30 min, PET): 9.83±3.69 % ID/g | Liver uptake ([4]; 30 min, PET): 5.10±0.53 % ID/g | Tumor uptake ([4]; 30 min, PET): 2.20±0.36 % ID/g | Kidneys uptake ([4]; 60 min, PET): 7.03±2.32 % ID/g | Liver uptake ([4]; 60 min, PET): 3.70±0.98 % ID/g | Tumor uptake ([4]; 60 min, PET): 2.13±0.55 % ID/g | Kidneys uptake ([4]; 120 min, PET): 2.27 ± 1.07 % ID/g | Liver uptake ([4]; 120 min, PET): 2.07 ± 0.96 % ID/g | Tumor uptake ([4]; 120 min, PET): 0.73±0.32 % ID/g | defluorination in vivo (from low bone uptake) ([4]; PET, bone uptake): did not occur | clearance / excretion route from the mouse body ([4]; as visualized by PET images): primarily through the hepatic pathway
